Assay [1] deals with 5-HT2 receptor (Rattus norvegicus, UniProt P14842). As to the kind of experiment: 5-HT2 receptor binding assay (displacement of 3H-ketanserin). A general note: In a radioligand displacement assay an active substance lowers the binding of a labelled ligand.
In assay [2] the target is T1, human D4 receptor (D4.2 sub-type) (Homo sapiens, UniProt P21917, DEL265-296).
T1 construct: expressed in transfected cells; host or cells: HEK 298 (so in the source)
T1 sequence (P21917 with tags, fused parts or gaps DEL265-296): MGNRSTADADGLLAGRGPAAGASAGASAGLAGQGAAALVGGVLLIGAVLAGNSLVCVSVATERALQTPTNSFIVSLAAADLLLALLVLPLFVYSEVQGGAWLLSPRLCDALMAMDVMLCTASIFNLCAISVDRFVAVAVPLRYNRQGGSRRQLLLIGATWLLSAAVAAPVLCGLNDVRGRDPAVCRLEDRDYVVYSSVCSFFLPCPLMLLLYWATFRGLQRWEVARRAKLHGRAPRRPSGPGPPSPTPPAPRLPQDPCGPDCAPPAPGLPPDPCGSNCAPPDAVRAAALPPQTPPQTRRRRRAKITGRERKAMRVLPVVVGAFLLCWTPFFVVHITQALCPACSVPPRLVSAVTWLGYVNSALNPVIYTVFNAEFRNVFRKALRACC
Nature of the assay: Dopamine D4 receptor binding assay (displacement of 3H-spiperone). The settings on record: 3H-spiperone 0.25 nM, transfected with human D4.2, room temperature, 90 min; read-out: Receptor affinity D4 (Ki).
Description: Dopamine Receptor Binding Assay
The cells were then centrifuged in a Sorval centrifuge for 10 minutes, 5000 rpm (GS3 rotor) and the pellets quickly frozen in liquid nitrogen and stored at -80° C. until used in binding assay. When used in the assay, cells were thawed on ice for 20 minutes and then 10 mL of incubation buffer (50 mM Tris, 1 mM EDTA, 4 mM MgCl2, 5 mM KCl, 1.5 mM CaCl2, 120 mM NaCl, pH7.4) was added. […] Concentration of receptor protein was determined using the Pierce BCA assay.

Assay [3] has as its target T2, human D2 receptor (short isoform) (Homo sapiens, UniProt P14416).
T2 construct: expressed in transfected cells
Nature of the assay: Dopamine D2 receptor binding assay (displacement of 3H-spiperone). Particulars: 3H-spiperone 0.25 nM, GH4C1 cells transfected with human D2 short isoform, room temperature, 90 min; read-out: Receptor affinity D2 (Ki).
Description: GH4 C1 (rat pituitary) cells stably transfected with the human D2 receptor (short isoform) were grown in CO2 independent media in roller bottles (1500 cm^2) for 10 days. 100 μM ZnSO4 was added to the cells (the D2 promoter being zinc inducible). After 16 hours, fresh media was added to allow the cells to recover for 24 hours. The cells were harvested using versene and then centrifuged in a Sorval centrifuge for 10 minutes, at 5000 rpm (GS3 rotor). Pellets were quickly frozen in liquid nitrogen and stored at -80° C. until used in the binding assays. When used in the assay, cells were thawed on ice for 20 minutes. Each roller bottle produced approximately 72 mg of protein.
This assay employed the same procedures as the non-specific binding assay for D4 with the exception that 2 μM (final conc.) of (-) sulpiride (Research Chemicals Inc.) was used in place of dopamine.

For assay [4], the target named is muscarinic M1/M2 receptor. Nature of the assay: Muscarinic M1/M2 receptor binding assay (displacement of 3H-QNB). The settings on record: 3H-QNB 0.126 nM, rat frontal cortex membranes, 32° C., 60 min, pH 7.4; read-out: Receptor affinity M1/M2 (Ki).

The structures appear in SMILES notation.

The values that follow come from US5561127A, “Muscarinic receptor ligands” (Allelix Biopharmaceuticals, Inc., priority 1994, dated 1996).

Chain of 5-HT2 receptor (P14842 whole entry): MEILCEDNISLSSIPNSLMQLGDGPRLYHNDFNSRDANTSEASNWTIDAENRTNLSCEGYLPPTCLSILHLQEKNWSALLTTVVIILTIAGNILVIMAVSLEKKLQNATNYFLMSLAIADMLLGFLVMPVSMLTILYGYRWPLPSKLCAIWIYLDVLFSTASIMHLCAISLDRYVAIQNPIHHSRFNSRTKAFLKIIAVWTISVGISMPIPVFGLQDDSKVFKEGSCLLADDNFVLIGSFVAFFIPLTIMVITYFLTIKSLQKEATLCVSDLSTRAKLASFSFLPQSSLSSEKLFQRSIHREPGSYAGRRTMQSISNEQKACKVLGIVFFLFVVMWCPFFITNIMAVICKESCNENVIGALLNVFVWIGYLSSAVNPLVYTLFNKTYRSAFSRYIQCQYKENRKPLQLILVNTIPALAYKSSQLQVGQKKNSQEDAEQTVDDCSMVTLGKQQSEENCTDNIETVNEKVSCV
T2 sequence (P14416 1-414 isoform P14416-2): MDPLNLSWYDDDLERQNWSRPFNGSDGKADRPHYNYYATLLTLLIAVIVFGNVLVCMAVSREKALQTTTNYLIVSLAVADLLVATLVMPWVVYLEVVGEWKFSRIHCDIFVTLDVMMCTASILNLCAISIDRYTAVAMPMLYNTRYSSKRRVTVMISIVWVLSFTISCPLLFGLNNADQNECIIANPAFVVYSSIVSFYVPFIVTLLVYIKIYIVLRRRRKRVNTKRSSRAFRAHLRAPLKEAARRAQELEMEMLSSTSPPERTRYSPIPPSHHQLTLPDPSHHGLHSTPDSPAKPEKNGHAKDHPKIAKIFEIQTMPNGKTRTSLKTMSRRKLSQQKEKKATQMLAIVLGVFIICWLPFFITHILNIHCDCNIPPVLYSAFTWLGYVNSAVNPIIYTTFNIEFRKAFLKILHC

Regarding `CN1CC2CC1CN2C1=Nc2cc(Cl)c(Cl)cc2Nc2ccccc21` (stereo not drawn) [7,8-dichloro-11-(2-methyl-2,5-diazabicyclo(2.2.1)hept-5-yl)-dibenzo[b,e][1,4]diazepine], the Ki in assay [1] is 1600 nM; in assay [2], 4770 nM; in assay [3], 4710 nM; in assay [4] it was 41 nM.

For `CN1CC2CC1CN2C1=Nc2cc(Cl)ccc2Oc2ccccc21` (stereo not drawn) [8-chloro-11-(2-methyl-2,5-diazabicyclo(2.2.1)hept-5-yl)-dibenz[b,f][1,4]oxazepine], the Ki in assay [1] amounted to 1020 nM; in assay [2], 4770 nM; in assay [3], 4520 nM; in assay [4] it was 28 nM.

`c1ccc(CN2CC3CC2CN3C2=Nc3ccccc3Oc3ccccc32)cc1` (stereo not drawn) [11-(2-benzyl-2,5-diazabicyclo(2.2.1)hept-5-yl)-dibenz[b,f][1,4]oxazepine]: the Ki in assay [1] was determined as 3670 nM; in assay [2], 632 nM; in assay [3], 1330 nM; in assay [4], 882 nM.
